{"source": "ChEMBL document CHEMBL4706723", "about": "“Novel N-Heteroaryl Indazole Derivatives as LRRK2 Inhibitors for Treating Parkinson's Disease” (ACS Med Chem Lett, 2021)"}
{"target": "Leucine-rich repeat serine/threonine-protein kinase 2 (Homo sapiens, UniProt Q5S007, G2019S)", "sequence (Q5S007 whole entry G2019S, the tested form may be a part)": "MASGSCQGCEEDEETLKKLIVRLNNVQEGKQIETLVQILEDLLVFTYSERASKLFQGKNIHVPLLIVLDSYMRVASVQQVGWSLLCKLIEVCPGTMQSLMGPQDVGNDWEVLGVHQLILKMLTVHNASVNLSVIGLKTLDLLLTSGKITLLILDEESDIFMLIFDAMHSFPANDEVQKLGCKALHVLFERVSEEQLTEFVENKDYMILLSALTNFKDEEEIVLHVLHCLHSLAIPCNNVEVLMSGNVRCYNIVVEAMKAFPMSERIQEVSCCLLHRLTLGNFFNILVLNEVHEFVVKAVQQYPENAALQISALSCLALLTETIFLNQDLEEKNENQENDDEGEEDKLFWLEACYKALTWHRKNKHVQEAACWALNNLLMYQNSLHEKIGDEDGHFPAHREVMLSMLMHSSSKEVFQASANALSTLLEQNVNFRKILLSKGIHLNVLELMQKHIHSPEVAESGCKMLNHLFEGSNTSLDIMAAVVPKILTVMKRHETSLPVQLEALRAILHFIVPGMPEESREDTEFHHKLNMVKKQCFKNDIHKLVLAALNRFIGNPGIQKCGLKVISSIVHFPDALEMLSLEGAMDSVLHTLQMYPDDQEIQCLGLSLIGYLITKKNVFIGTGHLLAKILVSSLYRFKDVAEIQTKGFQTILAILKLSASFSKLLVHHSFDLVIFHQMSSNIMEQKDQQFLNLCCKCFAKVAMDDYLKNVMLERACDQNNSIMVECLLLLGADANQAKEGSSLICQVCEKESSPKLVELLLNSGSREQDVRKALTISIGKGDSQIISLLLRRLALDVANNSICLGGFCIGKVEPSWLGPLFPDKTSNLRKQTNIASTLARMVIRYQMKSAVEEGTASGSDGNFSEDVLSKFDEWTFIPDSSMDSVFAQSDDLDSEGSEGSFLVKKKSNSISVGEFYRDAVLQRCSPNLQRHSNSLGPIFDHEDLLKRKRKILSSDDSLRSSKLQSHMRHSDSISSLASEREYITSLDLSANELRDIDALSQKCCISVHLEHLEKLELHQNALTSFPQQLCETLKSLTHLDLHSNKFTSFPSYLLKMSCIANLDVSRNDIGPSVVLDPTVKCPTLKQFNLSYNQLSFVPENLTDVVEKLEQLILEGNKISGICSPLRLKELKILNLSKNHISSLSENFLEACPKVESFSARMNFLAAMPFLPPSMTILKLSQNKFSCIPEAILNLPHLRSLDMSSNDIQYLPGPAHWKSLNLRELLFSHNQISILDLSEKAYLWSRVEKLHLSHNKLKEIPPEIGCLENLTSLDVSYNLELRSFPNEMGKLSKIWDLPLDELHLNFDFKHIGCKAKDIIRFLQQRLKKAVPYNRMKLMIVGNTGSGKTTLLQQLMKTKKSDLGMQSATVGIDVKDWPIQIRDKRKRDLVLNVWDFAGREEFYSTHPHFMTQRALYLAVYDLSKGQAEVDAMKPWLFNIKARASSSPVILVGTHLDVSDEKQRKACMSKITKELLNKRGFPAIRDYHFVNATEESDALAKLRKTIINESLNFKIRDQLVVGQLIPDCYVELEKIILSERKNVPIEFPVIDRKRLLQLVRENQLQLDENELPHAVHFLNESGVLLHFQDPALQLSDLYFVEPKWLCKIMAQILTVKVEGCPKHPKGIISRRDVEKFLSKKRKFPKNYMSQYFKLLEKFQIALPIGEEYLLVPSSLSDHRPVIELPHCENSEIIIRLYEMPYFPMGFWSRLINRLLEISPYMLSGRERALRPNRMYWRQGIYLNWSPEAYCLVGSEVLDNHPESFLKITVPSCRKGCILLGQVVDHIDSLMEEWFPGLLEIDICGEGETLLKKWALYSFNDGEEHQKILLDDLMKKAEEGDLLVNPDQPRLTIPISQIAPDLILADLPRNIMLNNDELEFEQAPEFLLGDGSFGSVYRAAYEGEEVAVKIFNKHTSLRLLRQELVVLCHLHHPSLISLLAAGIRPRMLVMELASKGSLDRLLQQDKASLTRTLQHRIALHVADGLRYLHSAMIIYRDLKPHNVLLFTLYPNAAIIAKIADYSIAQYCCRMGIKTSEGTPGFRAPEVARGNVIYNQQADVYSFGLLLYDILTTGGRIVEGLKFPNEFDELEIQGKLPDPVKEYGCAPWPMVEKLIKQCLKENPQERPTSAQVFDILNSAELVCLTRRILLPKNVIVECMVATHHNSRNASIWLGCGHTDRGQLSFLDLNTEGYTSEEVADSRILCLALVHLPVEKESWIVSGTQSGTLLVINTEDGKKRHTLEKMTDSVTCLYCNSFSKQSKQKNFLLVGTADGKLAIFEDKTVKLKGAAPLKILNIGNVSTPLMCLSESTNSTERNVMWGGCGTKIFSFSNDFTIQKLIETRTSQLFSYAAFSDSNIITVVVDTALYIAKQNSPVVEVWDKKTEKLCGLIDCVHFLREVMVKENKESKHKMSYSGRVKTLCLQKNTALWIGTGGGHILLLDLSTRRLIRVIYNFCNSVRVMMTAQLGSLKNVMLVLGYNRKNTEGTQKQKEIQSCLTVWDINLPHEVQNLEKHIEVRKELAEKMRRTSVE", "assay": "Inhibition of recombinant human GST tagged LRRK2 G2019S mutant catalytic domain (970 to 2527 residues) expressed in baculovirus expression system using fluorescein-labeled LRRKtide as substrate preincubated for 15 mins followed by substrate addition and measured after 90 mins by TR-FRET based Lanthascreen assay", "units": {"IC50": "nM"}}
{"compound": "Cn1cc(-n2ncc3cc(Cl)c(C4CCN(C5(C)CCOC5)CC4)cc32)cn1", "note": "(stereo not drawn)", "IC50": "< 0.625"}
{"compound": "CC1(N2CCC(c3cc4c(cnn4-c4cnn(C56CC(C#N)(C5)C6)c4)cc3Cl)CC2)COC1", "IC50": "< 0.625"}
{"compound": "CC1(N2CCC(c3cc4c(cnn4-c4cnn(C56CC(C5)C6)c4)cc3Cl)CC2)COC1", "IC50": 0.71}
